Source: the NIST ThermoML archive (doi:10.1021/je025639s)
Numbers after ± are expanded uncertainties.

How the values were obtained:
[1] = xn = mol fraction of the nth substance listed; details: Ring tensiometer
[2] = Ring tensiometer

## CCO [ethanol] + OCCO
[1]; 293.15 K, x1 = 1
  surface tension liquid-gas: 22.3 ± 0.3 mN/m
[1]; 298.15 K, x1 = 1
  surface tension liquid-gas: 21.8 ± 0.3 mN/m
[1]; 303.15 K, x1 = 1
  surface tension liquid-gas: 21.4 ± 0.3 mN/m
[1]; 308.15 K, x1 = 1
  surface tension liquid-gas: 21.1 ± 0.3 mN/m
[1]; 313.15 K, x1 = 1
  surface tension liquid-gas: 20.8 ± 0.3 mN/m
[1]; 318.15 K, x1 = 1
  surface tension liquid-gas: 20.5 ± 0.3 mN/m
[1]; 323.15 K, x1 = 1
  surface tension liquid-gas: 20 ± 0.3 mN/m

## OCCO [1,2-ethanediol]
[2]; 293.15 K
  surface tension liquid-gas: 48.9 ± 0.7 mN/m
[2]; 298.15 K
  surface tension liquid-gas: 48.6 ± 0.7 mN/m
[2]; 303.15 K
  surface tension liquid-gas: 48.1 ± 0.7 mN/m
[2]; 308.15 K
  surface tension liquid-gas: 47.5 ± 0.6 mN/m
[2]; 313.15 K
  surface tension liquid-gas: 47.1 ± 0.6 mN/m
[2]; 318.15 K
  surface tension liquid-gas: 46.4 ± 0.6 mN/m
[2]; 323.15 K
  surface tension liquid-gas: 45.9 ± 0.6 mN/m

## CCO [ethanol]
[2]; 293.15 K
  surface tension liquid-gas: 22.3 ± 0.3 mN/m
[2]; 298.15 K
  surface tension liquid-gas: 21.8 ± 0.3 mN/m
[2]; 303.15 K
  surface tension liquid-gas: 21.4 ± 0.3 mN/m
[2]; 308.15 K
  surface tension liquid-gas: 21.1 ± 0.3 mN/m
[2]; 313.15 K
  surface tension liquid-gas: 20.8 ± 0.3 mN/m
[2]; 318.15 K
  surface tension liquid-gas: 20.5 ± 0.3 mN/m
[2]; 323.15 K
  surface tension liquid-gas: 20 ± 0.3 mN/m

## OCCO [1,2-ethanediol] + CCO
[1]; 293.15 K, x2 = 0
  surface tension liquid-gas: 48.9 ± 0.7 mN/m
[1]; 293.15 K, x2 = 0.1
  surface tension liquid-gas: 42 ± 0.6 mN/m
[1]; 293.15 K, x2 = 0.3
  surface tension liquid-gas: 32.9 ± 0.5 mN/m
[1]; 293.15 K, x2 = 0.5
  surface tension liquid-gas: 28.5 ± 0.4 mN/m
[1]; 293.15 K, x2 = 0.6
  surface tension liquid-gas: 26.9 ± 0.4 mN/m
[1]; 293.15 K, x2 = 0.7
  surface tension liquid-gas: 25 ± 0.4 mN/m
[1]; 293.15 K, x2 = 0.9
  surface tension liquid-gas: 23.1 ± 0.4 mN/m
[1]; 298.15 K, x2 = 0
  surface tension liquid-gas: 48.6 ± 0.7 mN/m
[1]; 298.15 K, x2 = 0.1
  surface tension liquid-gas: 41.8 ± 0.6 mN/m
[1]; 298.15 K, x2 = 0.3
  surface tension liquid-gas: 32.7 ± 0.5 mN/m
[1]; 298.15 K, x2 = 0.5
  surface tension liquid-gas: 28.3 ± 0.4 mN/m
[1]; 298.15 K, x2 = 0.6
  surface tension liquid-gas: 26.4 ± 0.4 mN/m
[1]; 298.15 K, x2 = 0.7
  surface tension liquid-gas: 24.9 ± 0.4 mN/m
[1]; 298.15 K, x2 = 0.9
  surface tension liquid-gas: 22.68 ± 0.34 mN/m
[1]; 303.15 K, x2 = 0
  surface tension liquid-gas: 48.1 ± 0.7 mN/m
[1]; 303.15 K, x2 = 0.1
  surface tension liquid-gas: 41.4 ± 0.6 mN/m
[1]; 303.15 K, x2 = 0.3
  surface tension liquid-gas: 32.2 ± 0.5 mN/m
[1]; 303.15 K, x2 = 0.5
  surface tension liquid-gas: 27.8 ± 0.4 mN/m
[1]; 303.15 K, x2 = 0.6
  surface tension liquid-gas: 26.1 ± 0.4 mN/m
[1]; 303.15 K, x2 = 0.7
  surface tension liquid-gas: 24.7 ± 0.4 mN/m
[1]; 303.15 K, x2 = 0.9
  surface tension liquid-gas: 22.33 ± 0.34 mN/m
[1]; 308.15 K, x2 = 0
  surface tension liquid-gas: 47.5 ± 0.6 mN/m
[1]; 308.15 K, x2 = 0.1
  surface tension liquid-gas: 41.2 ± 0.6 mN/m
[1]; 308.15 K, x2 = 0.3
  surface tension liquid-gas: 31.6 ± 0.5 mN/m
[1]; 308.15 K, x2 = 0.5
  surface tension liquid-gas: 27.4 ± 0.4 mN/m
[1]; 308.15 K, x2 = 0.6
  surface tension liquid-gas: 25.8 ± 0.4 mN/m
[1]; 308.15 K, x2 = 0.7
  surface tension liquid-gas: 24.4 ± 0.4 mN/m
[1]; 308.15 K, x2 = 0.9
  surface tension liquid-gas: 22.05 ± 0.33 mN/m
[1]; 313.15 K, x2 = 0
  surface tension liquid-gas: 47.1 ± 0.6 mN/m
[1]; 313.15 K, x2 = 0.1
  surface tension liquid-gas: 41 ± 0.6 mN/m
[1]; 313.15 K, x2 = 0.3
  surface tension liquid-gas: 31.1 ± 0.4 mN/m
[1]; 313.15 K, x2 = 0.5
  surface tension liquid-gas: 27 ± 0.4 mN/m
[1]; 313.15 K, x2 = 0.6
  surface tension liquid-gas: 25.4 ± 0.4 mN/m
[1]; 313.15 K, x2 = 0.7
  surface tension liquid-gas: 24 ± 0.4 mN/m
[1]; 313.15 K, x2 = 0.9
  surface tension liquid-gas: 21.8 ± 0.3 mN/m
[1]; 318.15 K, x2 = 0
  surface tension liquid-gas: 46.4 ± 0.6 mN/m
[1]; 318.15 K, x2 = 0.1
  surface tension liquid-gas: 40.6 ± 0.6 mN/m
[1]; 318.15 K, x2 = 0.3
  surface tension liquid-gas: 30.8 ± 0.4 mN/m
[1]; 318.15 K, x2 = 0.5
  surface tension liquid-gas: 26.7 ± 0.4 mN/m
[1]; 318.15 K, x2 = 0.6
  surface tension liquid-gas: 25 ± 0.4 mN/m
[1]; 318.15 K, x2 = 0.7
  surface tension liquid-gas: 23.6 ± 0.4 mN/m
[1]; 318.15 K, x2 = 0.9
  surface tension liquid-gas: 21.55 ± 0.33 mN/m
[1]; 323.15 K, x2 = 0
  surface tension liquid-gas: 45.9 ± 0.6 mN/m
[1]; 323.15 K, x2 = 0.1
  surface tension liquid-gas: 39.8 ± 0.6 mN/m
[1]; 323.15 K, x2 = 0.3
  surface tension liquid-gas: 30.7 ± 0.4 mN/m
[1]; 323.15 K, x2 = 0.5
  surface tension liquid-gas: 26.5 ± 0.4 mN/m
[1]; 323.15 K, x2 = 0.6
  surface tension liquid-gas: 24.8 ± 0.4 mN/m
[1]; 323.15 K, x2 = 0.7
  surface tension liquid-gas: 23.2 ± 0.4 mN/m
[1]; 323.15 K, x2 = 0.9
  surface tension liquid-gas: 21.1 ± 0.3 mN/m
